ChEMBL document CHEMBL1139817, “Synthesis and anti-inflammatory activity of 3-(4'-geranyloxy-3'-methoxyphenyl)-2-trans propenoic acid and its ester derivatives” (2007)

test system: Mus musculus; experiment: Antiinflammatory activity in CD1 mouse assessed as inhibition of croton oil-induced ear oedema at 0.3 umol/cm^2 after 6 hrs; format: functional; parameters: scale not given: the % may be the effect or the level left

| Compound | Activity [%] |
| --- | --- |
| COc1cc(/C=C/C(=O)O)ccc1OC/C=C(\C)CCC=C(C)C | 41 |
| COC(=O)c1ccccc1OC(=O)/C=C/c1ccc(OC/C=C(\C)CCC=C(C)C)c(OC)c1 | 42 |
| COc1cc(/C=C/C(=O)Oc2ccc3ccc(=O)oc3c2)ccc1OC/C=C(\C)CCC=C(C)C | 38 |
| COC(=O)/C=C/c1ccc(OC(=O)/C=C/c2ccc(OC/C=C(\C)CCC=C(C)C)c(OC)c2)c(OC)c1 | 43 |
| COC(=O)c1ccc(OC(=O)/C=C/c2ccc(OC/C=C(\C)CCC=C(C)C)c(OC)c2)c(OC)c1 | 29 |
| COc1cc(/C=C/C(=O)Oc2ccccc2OC)ccc1OC/C=C(\C)CCC=C(C)C | 49 |
| COc1cc(/C=C/C(=O)Oc2ccc3c(c2)C(=O)c2ccc(OC(=O)/C=C/c4ccc(OC/C=C(\C)CCC=C(C)C)c(OC)c4)cc2C3=O)ccc1OC/C=C(\C)CCC=C(C)C | 43 |
| COc1cc(/C=C/C(=O)OC2=CC(=O)c3ccccc3C2=O)ccc1OC/C=C(\C)CCC=C(C)C | 43 |
| COC(=O)/C=C/c1ccc(OC(=O)/C=C/c2ccc(OC/C=C(\C)CCC=C(C)C)c(OC)c2)c(OC(=O)/C=C/c2ccc(OC/C=C(\C)CCC=C(C)C)c(OC)c2)c1 | 38 |
| COc1cc(/C=C/C(=O)Oc2ccc(OC(=O)/C=C/c3ccc(OC/C=C(\C)CCC=C(C)C)c(OC)c3)cc2)ccc1OC/C=C(\C)CCC=C(C)C | 57 |
| COc1cc(/C=C/C(=O)Oc2ccc(NC(C)=O)cc2)ccc1OC/C=C(\C)CCC=C(C)C | 51 |
| CC(=O)Nc1ccc(O)cc1 [ACETAMINOPHEN] | 13 |
| O=C1c2ccc(O)cc2C(=O)c2ccc(O)cc21 [ANTHRAFLAVICACID] | 22 |
| O=C(O)/C=C/c1ccc(O)c(O)c1 [CAFFEIC ACID] | 6 |
| COc1cc(/C=C/C(=O)O)ccc1O [FERULATE] | 16 |
| COc1ccccc1O [GUAIACOL] | 10 |
| Oc1ccc(O)cc1 [HYDROQUINONE] | 4 |
| COc1ccc2c(c1)c(CC(=O)O)c(C)n2C(=O)c1ccc(Cl)cc1 [INDOMETHACIN] | 62 |
| O=C1C=C(O)C(=O)c2ccccc21 [LAWSONE] | 23 |
| O=C1C[C@@H](c2ccc(O)cc2)Oc2cc(O)cc(O)c21 [NARINGENIN] | 43 |
| O=C(O)c1ccccc1O [SALICYLIC ACID] | 13 |
| O=c1ccc2ccc(O)cc2o1 [UMBELLIFERONE] | 23 |
| COc1cc(C(=O)O)ccc1O [VANILLIC ACID] | 20 |
